Laboratory results: PubChem BioAssay AID1745844 (Carcinogenic Potency Database (CPDB), 2022)
Active and inactive are the calls of the source. No rule for the calls is given here.

Tested on: rodent lifetime carcinogenesis bioassay, tumor incidence TD50
Assay: carcinogenic potency in animals, long-term in vivo studies, CPDB compilation (AID 1745844)

For O=C1NS(=O)(=O)c2ccccc21, the TD50 (monkey, strain Rhesus [Macaca mulatta], both sexes, in feed, site: any site (literature study), lesion: malignant tumor, dosed 1221 weeks, study length 1221 weeks) was 610 mg/kg/day, the TD50 (monkey, strain Rhesus [Macaca mulatta], both sexes, in feed, site: thyroid gland, lesion: lymphoma, dosed 1221 weeks, study length 1221 weeks) was 43.3 mg/kg/day and the TD50 (mouse, strain CD-1 HaM/ICR, females, in feed, site: any site (literature study), lesion: several types, types named in the paper, dosed 104 weeks, study length 104 weeks) was 26100 mg/kg/day (inactive). For the same compound, the carcinogen call (mouse, strain CD-1 HaM/ICR, females, in feed, site: liver, lesion: one or several types, types not named, dosed 104 weeks, study length 104 weeks) was “negative (inactive)”, the carcinogen call (mouse, strain CD-1 HaM/ICR, females, in feed, site: lung, lesion: one or several types, types not named, dosed 104 weeks, study length 104 weeks) was “negative (inactive)” and the TD50 (mouse, strain CD-1 HaM/ICR, males, in feed, site: any site (literature study), lesion: several types, types named in the paper, dosed 104 weeks, study length 104 weeks) was 881 mg/kg/day (inactive). For the same compound, the carcinogen call (mouse, strain CD-1 HaM/ICR, males, in feed, site: liver, lesion: hepatoma, dosed 104 weeks, study length 104 weeks) was “negative (inactive)”, the TD50 (mouse, strain CD-1 HaM/ICR, males, in feed, site: lung, lesion: one or several types, types not named, dosed 104 weeks, study length 104 weeks) was 1360 mg/kg/day (inactive) and the carcinogen call (mouse, strain Swiss albino, females, in feed, site: liver, lesion: hepatoma, dosed 76 weeks, study length 76 weeks) was “negative (inactive)”. For the same compound, the TD50 (mouse, strain Swiss albino, females, in feed, site: lung, lesion: one or several types, types not named, dosed 76 weeks, study length 76 weeks) was 56300 mg/kg/day (inactive), the carcinogen call (mouse, strain Swiss, females, in feed, site: urinary bladder, lesion: anaplastic carcinoma, dosed 91 weeks, study length 91 weeks) was “negative (inactive)” and the carcinogen call (mouse, strain Swiss, males, in feed, site: urinary bladder, lesion: transitional-cell carcinoma, dosed 91 weeks, study length 91 weeks) was “negative (inactive)”. The TD50 (rat, strain ACI, males, in feed, site: urinary bladder, lesion: papilloma, dosed 52 weeks, study length 52 weeks) was 1110 mg/kg/day, the TD50 (rat, strain ACI, males, in feed, site: urinary bladder, lesion: transitional-cell carcinoma, dosed 52 weeks, study length 52 weeks) was 3710 mg/kg/day and the carcinogen call (rat, strain Analbuminaemic (Sprague-Dawley derived), males, in feed, site: urinary bladder, lesion: carcinoma, dosed 80 weeks, study length 80 weeks) was “negative (inactive)”. The TD50 (rat, strain Charles River CD (Sprague-Dawley), females, in feed, site: liver, lesion: biliary cystadenoma, dosed 142 weeks, study length 142 weeks) was 155000 mg/kg/day, the TD50 (rat, strain Charles River CD (Sprague-Dawley), females, in feed, site: liver, lesion: cholangiocarcinoma, dosed 113 weeks, study length 113 weeks) was 78200 mg/kg/day (inactive) and the TD50 (rat, strain Charles River CD (Sprague-Dawley), females, in feed, site: liver, lesion: neoplastic nodule, dosed 142 weeks, study length 142 weeks) was 155000 mg/kg/day. The TD50 (rat, strain Charles River CD (Sprague-Dawley), females, in feed, site: liver, lesion: nodular hyperplasia, dosed 113 weeks, study length 113 weeks) was 98400 mg/kg/day (inactive), the carcinogen call (rat, strain Charles River CD (Sprague-Dawley), males, in feed, site: any site (literature study), lesion: several types, types named in the paper, dosed 104 weeks, study length 104 weeks) was “negative (inactive)” and the TD50 (rat, strain Charles River CD (Sprague-Dawley), males, in feed, site: liver, lesion: biliary cystadenoma, dosed 142 weeks, study length 142 weeks) was 60000 mg/kg/day. For the same compound, the carcinogen call (rat, strain Charles River CD (Sprague-Dawley), males, in feed, site: liver, lesion: hepatocellular carcinoma, dosed 113 weeks, study length 113 weeks) was “negative (inactive)”, the TD50 (rat, strain Charles River CD (Sprague-Dawley), males, in feed, site: parathyroid, lesion: adenoma, dosed 142 weeks, study length 142 weeks) was 23200 mg/kg/day and the TD50 (rat, strain Charles River CD (Sprague-Dawley), males, in feed, site: urinary bladder, lesion: transitional-cell carcinoma, dosed 142 weeks, study length 142 weeks) was 31100 mg/kg/day. The TD50 (rat, strain Charles River CD (Sprague-Dawley), males, in feed, site: urinary bladder, lesion: transitional-cell papilloma, dosed 142 weeks, study length 142 weeks) was 30800 mg/kg/day, the carcinogen call (rat, strain Fischer 344, males, in feed, site: forestomach, lesion: papilloma, dosed 72 weeks, study length 73 weeks) was “negative (inactive)” and the carcinogen call (rat, strain Fischer 344, males, in feed, site: urinary bladder, lesion: carcinoma, dosed 72 weeks, study length 73 weeks) was “negative (inactive)”. For the same compound, the carcinogen call (rat, strain Fischer 344, males, in feed, site: urinary bladder, lesion: one or several types, types not named, dosed 52 weeks, study length 52 weeks) was “negative (inactive)”, the carcinogen call (rat, strain Fischer 344, males, in feed, site: urinary bladder, lesion: one or several types, types not named, dosed 72 weeks, study length 72 weeks) was “negative (inactive)” and the carcinogen call (rat, strain Fischer 344, males, in feed, site: urinary bladder, lesion: one or several types, types not named, dosed 102 weeks, study length 104 weeks) was “negative (inactive)”. The carcinogen call (rat, strain Fischer 344, males, in feed, site: urinary bladder, lesion: one or several types, types not named, dosed 104 weeks, study length 104 weeks) was “negative (inactive)”, the TD50 (rat, strain Fischer 344, males, in feed, site: urinary bladder, lesion: papilloma, dosed 104 weeks, study length 104 weeks) was 54100 mg/kg/day and the TD50 (rat, strain Fischer, males, in feed, site: testis, lesion: interstitial-cell tumor, dosed 77 weeks, study length 98 weeks) was 613 mg/kg/day. For the same compound, the carcinogen call (rat, strain Fischer, males, in feed, site: urinary bladder, lesion: several types, types named in the paper, dosed 100 weeks, study length 104 weeks) was “negative (inactive)”, the TD50 (rat, strain Sprague-Dawley, both sexes, in feed, site: any site (literature study), lesion: malignant tumor, dosed 130 weeks, study length 130 weeks) was 4100 mg/kg/day (inactive) and the carcinogen call (rat, strain Sprague-Dawley, both sexes, in feed, site: urinary bladder, lesion: one or several types, types not named, dosed 130 weeks, study length 130 weeks) was “negative (inactive)”. For the same compound, the carcinogen call (rat, strain Sprague-Dawley, males, in feed, site: urinary bladder, lesion: carcinoma, dosed 80 weeks, study length 80 weeks) was “negative (inactive)”, the carcinogen call (rat, strain Sprague-Dawley, males, in feed, site: urinary bladder, lesion: one or several types, types not named, dosed 52 weeks, study length 52 weeks) was “negative (inactive)” and the TD50 (rat, strain Wistar, both sexes, in feed, site: urinary bladder, lesion: one or several types, types not named, dosed 104 weeks, study length 104 weeks) was 125000 mg/kg/day. For the same compound, the carcinogen call (rat, strain Wistar, males, in feed, site: urinary bladder, lesion: one or several types, types not named, dosed 52 weeks, study length 52 weeks) was “negative (inactive)”.
For NCCNc1cccc2ccccc12, the carcinogen call (mouse, strain B6C3F1, females, in feed, site: any site (literature study), lesion: several types, types named in the paper, dosed 104 weeks, study length 106 weeks) was “negative (inactive)”, the TD50 (mouse, strain B6C3F1, females, in feed, site: liver, lesion: hepatocellular adenoma + hepatocellular carcinoma + neoplastic nodule, dosed 104 weeks, study length 106 weeks) was 25600 mg/kg/day and the TD50 (mouse, strain B6C3F1, females, in feed, site: lung, lesion: alveolar/bronchiolar adenoma + alveolar/bronchiolar carcinoma, dosed 104 weeks, study length 106 weeks) was 4390 mg/kg/day. For the same compound, the carcinogen call (mouse, strain B6C3F1, males, in feed, site: any site (literature study), lesion: several types, types named in the paper, dosed 104 weeks, study length 104 weeks) was “negative (inactive)”, the TD50 (rat, strain Fischer 344, females, in feed, site: liver, lesion: hepatocellular adenoma + hepatocellular carcinoma + neoplastic nodule, dosed 104 weeks, study length 107 weeks) was 93.5 mg/kg/day and the TD50 (rat, strain Fischer 344, females, in feed, site: liver, lesion: hepatocellular carcinoma + neoplastic nodule, dosed 104 weeks, study length 107 weeks) was 93.5 mg/kg/day (inactive). The TD50 (rat, strain Fischer 344, males, in feed, site: any site (literature study), lesion: several types, types named in the paper, dosed 104 weeks, study length 107 weeks) was 41.6 mg/kg/day (inactive).
C[C@@H]1CCCCN1N=O showed a TD50 (rat, strain Sprague-Dawley, both sexes, in drinking water, site: any site (literature study), lesion: malignant tumor, dosed 104 weeks, study length 104 weeks) of 20.4 mg/kg/day, a TD50 (rat, strain Sprague-Dawley, both sexes, in drinking water, site: liver, lesion: hepatocellular adenoma, dosed 104 weeks, study length 104 weeks) of 108 mg/kg/day and a TD50 (rat, strain Sprague-Dawley, both sexes, in drinking water, site: n. olfactorius, lesion: ependymoblastoma, dosed 104 weeks, study length 104 weeks) of 22.1 mg/kg/day.
For O=C(O)CCC(=O)O, the TD50 (rat, strain F344/DuCrj, females, in drinking water, site: any site (literature study), lesion: one or several types, types not named, dosed 104 weeks, study length 113 weeks) was 4820 mg/kg/day (inactive), the carcinogen call (rat, strain F344/DuCrj, females, in drinking water, site: liver, lesion: one or several types, types not named, dosed 104 weeks, study length 113 weeks) was “negative (inactive)” and the carcinogen call (rat, strain F344/DuCrj, males, in drinking water, site: any site (literature study), lesion: one or several types, types not named, dosed 104 weeks, study length 113 weeks) was “negative (inactive)”. The carcinogen call (rat, strain F344/DuCrj, males, in drinking water, site: liver, lesion: hepatocellular adenoma, dosed 104 weeks, study length 113 weeks) was “negative (inactive)” and the TD50 (rat, strain F344/DuCrj, males, in drinking water, site: liver, lesion: hepatocellular carcinoma, dosed 104 weeks, study length 113 weeks) was 54700 mg/kg/day (inactive).
For OB(O)O, the carcinogen call (mouse, strain B6C3F1, females, in feed, site: any site (literature study), lesion: several types, types named in the paper, dosed 103 weeks, study length 105 weeks) was “negative (inactive)”, the TD50 (mouse, strain B6C3F1, females, in feed, site: liver, lesion: hepatocellular adenoma + hepatocellular carcinoma + neoplastic nodule, dosed 103 weeks, study length 105 weeks) was 31000 mg/kg/day and the TD50 (mouse, strain B6C3F1, females, in feed, site: lung, lesion: alveolar/bronchiolar adenoma + alveolar/bronchiolar carcinoma, dosed 103 weeks, study length 105 weeks) was 4190 mg/kg/day. The TD50 (mouse, strain B6C3F1, males, in feed, site: any site (literature study), lesion: several types, types named in the paper, dosed 103 weeks, study length 105 weeks) was 500 mg/kg/day, the TD50 (mouse, strain B6C3F1, males, in feed, site: liver, lesion: hepatocellular adenoma + hepatocellular carcinoma + neoplastic nodule, dosed 103 weeks, study length 105 weeks) was 638 mg/kg/day and the TD50 (mouse, strain B6C3F1, males, in feed, site: liver, lesion: hepatocellular adenoma + hepatocellular carcinoma, dosed 103 weeks, study length 105 weeks) was 638 mg/kg/day (inactive). It also gave a TD50 (mouse, strain B6C3F1, males, in feed, site: liver, lesion: hepatocellular carcinoma, dosed 103 weeks, study length 105 weeks) of 1120 mg/kg/day, a TD50 (mouse, strain B6C3F1, males, in feed, site: lung, lesion: alveolar/bronchiolar adenoma + alveolar/bronchiolar carcinoma, dosed 103 weeks, study length 105 weeks) of 38600 mg/kg/day and a TD50 (mouse, strain B6C3F1, males, in feed, site: subcutaneous tissue, lesion: fibrosarcoma + fibroma + neurofibrosarcoma + sarcoma, NOS, dosed 103 weeks, study length 105 weeks) of 706 mg/kg/day. It also gave a TD50 (mouse, strain B6C3F1, males, in feed, site: subcutaneous tissue, lesion: fibrosarcoma + neurofibrosarcoma + sarcoma, NOS, dosed 103 weeks, study length 105 weeks) of 1070 mg/kg/day.
